Measured values reported in BindingDB's records for doi:10.1021/jm980217s (Abbott Laboratories, 1998).

assay: Binding affinity for endothelin B receptor by measuring its ability to displace [125I]-ET-3 from porcine cerebellar tissue

IC50 [µM]	Structure (SMILES)
60	C=CCCC[C@H]1[C@H](C(=O)O)[C@@H](c2ccc3c(c2)OCO3)CN1CC(=O)N(CCCC)CCCC [(2S,3R,4S)-4-Benzo[1,3]dioxol-5-yl-1-dibutylcarbamoylmethyl-2-pent-4-enyl-pyrrolidine-3-carboxylic acid]
47	CCCCC[C@H]1[C@H](C(=O)O)[C@@H](c2ccc3c(c2)OCO3)CN1CC(=O)N(CCCC)CCCC [(2S,3R,4S)-4-Benzo[1,3]dioxol-5-yl-1-dibutylcarbamoylmethyl-2-pentyl-pyrrolidine-3-carboxylic acid]
10	CCCCN(CCCC)C(=O)CN1C[C@H](c2ccc3c(c2)OCO3)[C@@H](C(=O)O)[C@@H]1CCC=C1CC1 [(2S,3R,4S)-4-Benzo[1,3]dioxol-5-yl-2-(3-cyclopropylidene-propyl)-1-dibutylcarbamoylmethyl-pyrrolidine-3-carboxylic acid]
